Experimental data published in patent US6022969A, “Compositions and methods for treating mast-cell mediated conditions” (AXYS Pharmaceuticals, Inc., priority 1995, dated 2000).

How the values were obtained:
[1] = tested on: tryptase; experiment: In vitro tryptase inhibition assay (hydrolysis of tosyl-Gly-Pro-Lys-p-nitroanilide); assay type: biochemical, human; settings: apparent affinity comparable to enzyme concentration
Procedure: The compounds to be assayed (approximately 1 mg) were dissolved in 200 μL dimethylsulfoxide (DMSO) and diluted 1:10 into buffer containing 50 millimolar (mM) Tris-HCl (pH 8.2), 100 mM sodium chloride, and 0.05% polyoxyethylenesorbitan monolaurate (Tween-20®, available from Sigma, St. Louis, Mo.). Seven additional threefold dilutions were made from the initial dilution into the same buffer supplemented with 10% DMSO. Aliquots (50 microliters, μL) from each of the eight dilutions in the series were transferred to individual wells in a 96-well U-bottom microtiter plate. 25 μL of a stock solution of tryptase was added to each well and the samples were mixed and incubated for one hour at room temperature (tryptase was purified from human lung and skin tissue preparations, HMC-1 (human mast cell line) and also obtained from commercial sources (ICN Biomedicals, Irvine, Calif.; Athens Research & Technology, Athens, Ga.)). […] The tryptase solution was prepared by placing 60 μg/mL of tryptase into solution with 10 mM MES (2-[N-Morpholino]ethane sulfonic acid) containing 2 mM CaCl2, 20% glycerol and 50 μg/mL heparin. The enzyme reaction was initiated with the addition of the synthetic tripeptide substrate, tosyl-Gly-Pro-Lys-p-nitroanilide (available from Sigma, 25 μL; 0.5 mM final concentration).
However, Ki ' varies with the enzyme concentration used in the enzyme assay. […] The y-intercept of a replot of IC50 (ordinate) versus tryptase concentration (abscissa) produces a value for Ki '.
The inhibition constants (Ki ', micromolar (μM)) were determined for the compounds of the present invention.

[2] = tested on: antigen-challenged sheep; experiment: Allergic sheep model of asthma: Specific Lung Resistance (SRL) after antigen challenge; assay type: in vivo
Procedure: (§1) The initial asthmatic response can be evaluated in guinea pigs, and dogs, and particularly, with a basenji-greyhound cross strain which develops nonspecific airway hyperresponsiveness to numerous nonallergenic substances, such as methacholine and citric acid. […] In dual responding animals, the initial asthmatic response (IAR) is followed by a late asthmatic response (LAR) at 6-8 hours post-exposure.
The allergic sheep model (see below) was used to evaluate the potential antiasthmatic effects of the compounds of the present invention.
(§2) The allergic sheep model of asthma was employed for he in vivo evaluation of the compounds of the invention as antiasthmatics. These methods have been published previously (see Abraham et al. (1983) Am. Rev. Respir. Dis. 128:839-844; Allegra et al. (1983) J. Appl. Physiol. 55:726-730; Russi et al. (1985) J. Appl. Physiol. 59:1416-1422; Soler et al. (1989) J. Appl. Physiol. 67:406-413. Each sheep serves as its own control. Body weights for these animals ranged from 20-50 kilograms.
The peak early response was taken as the average of the maximum values occurring immediately post-challenge. Peak late responses were calculated by averaging the maximum response values obtained for each animal within the 6-8 hour time period. This approach is conservative and eliminates the possible reduction in the late response due simply to averaging.
Three doses of the compound (2 mg in 10 mL water) were administered to sheep through an intergastric tube 1 hr before challenge, 4 hours post-challenge, and 24 hours post-challenge.

[3] = tested on: antigen-challenged sheep; experiment: Allergic sheep model of asthma: airway hyperresponsiveness to carbachol (PC400) 24 hours after antigen challenge; assay type: in vivo
Procedure: as §1, §2
Twenty-four hours after antigen challenge in both the control and drug trial, the sheep developed airway hyperresponsiveness. Airway hyperresponsiveness is expressed as PC400, the concentration of carbachol that causes a 400% increase in SRL; therefore, a decrease in PC400 indicates hyperresponsiveness. […] The number of breath units fell to 12 for those animals in the control group.

- type of tryptase inhibition [1]: tight binding inhibitor
SMILES: N=C(N)Nc1ccc(CNC(=O)N2CCN(C(=O)O[C@H]3CCC[C@@H](OC(=O)N4CCN(C(=O)NCc5ccc(NC(=N)N)cc5)CC4)CCC3)CC2)cc1 [Compound 3, cis-1,5-Cyclooctylene bis[4-(4-guanidinobenzylcarbamoyl)-1-piperazinecarboxylate]]
- early and late responses to antigen challenge, SRL (aerosol) ([2]; Compound 3: aerosol 50 μg 0.5 h before, 4 h and 24 h after challenge, n=3 (FIG. 1), Compound 2: aerosol 3 x 0.1 mg (FIG. 5)): significant attenuation of the early and late responses to the antigen challenge
- early and late phase response to antigen challenge, SRL (aerosol pretreatment) ([2]; aerosol predosing 0.5 mg/day x 3 days plus 0.5 mg 0.5 h before challenge (FIG. 7)): significant attenuation of early and late phase response to antigen challenge
- early phase SRL (oral) ([2]; intragastric 2 mg in 10 mL water 1 h before, 4 h and 24 h post-challenge, untreated about 250): about 175
- late phase SRL (oral) ([2]; intragastric 2 mg in 10 mL water 1 h before, 4 h and 24 h post-challenge, untreated over 200): about 50
- anti-asthmatic properties when delivered orally ([2]; oral, 3 x 2 mg): significant anti-asthmatic properties when delivered orally
- airway function in antigen challenged sheep (aerosol) ([3]; aerosol 3 x 50 μg (FIG. 2)): significant improvement in airway function
- airway hyperresponsiveness, PC400 (aerosol) ([3]; aerosol 3 x 50 μg, 24 h after challenge, baseline 32, control 12 (FIG. 2)): ~32 breath units
- airway function / PC400 (aerosol pretreatment) ([3]; aerosol predosing 0.5 mg/day x 3 days plus 0.5 mg 0.5 h before challenge (FIG. 8)): significant improvement in airway function
- onset of hyperresponsiveness (PC400, aerosol), result in words ([3]; aerosol, 24 h after antigen challenge, Compound 3 3 x 50 μg (FIG. 2), Compound 2 3 x 0.1 mg (FIG. 6)): block the onset of hyperresponsiveness
